Experimental data: the NIST ThermoML archive (doi:10.1021/je049762q)

Experiment: molar heat capacity at constant pressure
Conditions: 101.33 kPa

Clc1cc(Cl)cc(Cl)c1 [1,3,5-trichlorobenzene]
molar heat capacity at constant pressure [J/K/mol]
Conditions | Crystal | Liquid
171.08 K | 107.71 | –
172.15 K | 108.11 | –
174.44 K | 109.1 | –
174.82 K | 109.23 | –
177.47 K | 110.35 | –
177.76 K | 110.52 | –
180 K | 111.41 | –
180.1 K | 111.45 | –
181.06 K | 111.92 | –
182.71 K | 112.52 | –
184.34 K | 113.28 | –
185.3 K | 113.6 | –
187.58 K | 114.63 | –
187.87 K | 114.66 | –
190 K | 115.57 | –
190.43 K | 115.78 | –
190.81 K | 115.98 | –
192.97 K | 116.82 | –
194.01 K | 117.3 | –
195.49 K | 117.83 | –
197.19 K | 118.6 | –
198 K | 118.86 | –
200 K | 119.79 | –
200.35 K | 119.94 | –
202.96 K | 120.92 | –
203.48 K | 121.26 | –
205.42 K | 121.91 | –
206.6 K | 122.49 | –
207.87 K | 122.92 | –
209.7 K | 123.75 | –
210 K | 123.84 | –
210.3 K | 123.89 | –
212.71 K | 124.89 | –
212.77 K | 125.04 | –
215.12 K | 125.93 | –
215.83 K | 126.21 | –
217.51 K | 126.8 | –
218.86 K | 127.47 | –
219.88 K | 127.77 | –
220 K | 127.82 | –
221.88 K | 128.7 | –
222.25 K | 128.72 | –
224.6 K | 129.66 | –
224.87 K | 129.89 | –
226.94 K | 130.61 | –
227.85 K | 131.11 | –
229.27 K | 131.59 | –
230 K | 131.95 | –
230.81 K | 132.32 | –
231.58 K | 132.53 | –
233.76 K | 133.48 | –
236.18 K | 134.38 | –
236.69 K | 134.73 | –
238.46 K | 135.33 | –
239.6 K | 135.87 | –
240 K | 136.02 | –
240.73 K | 136.28 | –
242.5 K | 137.03 | –
242.99 K | 137.17 | –
245.24 K | 138.06 | –
245.38 K | 138.2 | –
247.48 K | 138.95 | –
248.24 K | 139.34 | –
249.71 K | 139.83 | –
250 K | 139.96 | –
251.09 K | 140.46 | –
251.93 K | 140.7 | –
253.93 K | 141.6 | –
256.34 K | 142.49 | –
256.76 K | 142.74 | –
258.53 K | 143.37 | –
259.57 K | 143.79 | –
260 K | 143.95 | –
260.71 K | 144.19 | –
262.36 K | 144.92 | –
262.88 K | 145.05 | –
265.05 K | 145.93 | –
265.15 K | 146.04 | –
267.2 K | 146.81 | –
267.91 K | 147.2 | –
269.34 K | 147.62 | –
270 K | 147.9 | –
270.67 K | 148.17 | –
271.48 K | 148.45 | –
273.41 K | 149.19 | –
275.71 K | 150.21 | –
276.13 K | 150.38 | –
277.82 K | 150.9 | –
278.84 K | 151.41 | –
279.93 K | 151.88 | –
280 K | 151.91 | –
281.54 K | 152.27 | –
282.02 K | 152.47 | –
284.11 K | 153.34 | –
286.19 K | 153.9 | –
288.26 K | 154.74 | –
290 K | 155.34 | –
290.32 K | 155.45 | –
292.38 K | 156.18 | –
294.42 K | 157 | –
295.88 K | 157.42 | –
296.46 K | 157.62 | –
298.15 K | 158.32 | –
298.44 K | 158.35 | –
300 K | 159.02 | –
300.52 K | 159.26 | –
300.98 K | 159.48 | –
303.51 K | 160.28 | –
306.03 K | 161.24 | –
306.98 K | 161.57 | –
308.54 K | 162.23 | –
310 K | 162.81 | –
310.04 K | 162.82 | –
311.04 K | 163.32 | –
311.61 K | 163.35 | –
313.11 K | 164.04 | –
313.53 K | 164.32 | –
314.66 K | 164.78 | –
316 K | 165.48 | –
317.72 K | 166.19 | –
318.47 K | 166.69 | –
320 K | 167.31 | –
320.77 K | 167.5 | –
320.93 K | 167.74 | –
323.38 K | 168.94 | –
323.83 K | 169.15 | –
325.82 K | 170.31 | –
326.88 K | 171.2 | –
328.25 K | 171.54 | –
330 K | 172.45 | –
335.92 K | 175.78 | 197.88
338.89 K | – | 198.6
340 K | – | 198.76
341.83 K | – | 199.12
341.91 K | – | 199.27
344.76 K | – | 199.68
344.94 K | – | 199.89
347.69 K | – | 200.32
347.97 K | – | 200.6
350 K | – | 200.94
350.61 K | – | 200.99
350.99 K | – | 201.16
353.52 K | – | 201.63
354 K | – | 201.88
356.43 K | – | 202.27
357.01 K | – | 202.62
359.34 K | – | 202.96
360 K | – | 203.18
360.01 K | – | 203.24
362.24 K | – | 203.68
363.01 K | – | 203.85
365.13 K | – | 204.35
366 K | – | 204.62
368.02 K | – | 204.99
368.98 K | – | 205.5
370 K | – | 205.46
370.9 K | – | 205.72
371.95 K | – | 206
373.78 K | – | 206.29
374.93 K | – | 206.68
376.65 K | – | 206.96
377.9 K | – | 207.35
379.51 K | – | 207.51
380 K | – | 207.79
380.86 K | – | 207.96
